This assay has as its system protein kinases (human kinome). Type of assay: cell-based. Particulars: for logFC PDK3: PDK3 (Q15120-2); for logFC of LIMK2: LIMK2 P53671-3; for logFC of SRC: Accession P12931-2; for logFC ABL1: ABL1 (P00519-2); for logFC LCK: accession P06239-3.
Setting [1] is: ACAD10 (Q6JQN1-5), experiment wp147, 4 uM.
[2] abbreviates: GK P32189-3, experiment wp147, 4 uM.
Setting [3] is: SRC (P12931-2) protein abundance, degrader vs DMSO, down.
The mark [4] stands for this setting: AURKB Q96GD4-5, experiment wp146.
Setting [5] is: CLK1 P49759-3, experiment wp146.
Where [6] appears, read: Experiment wp146, direction down.
The mark [7] stands for this setting: experiment wp056, direction of change down.
Where [8] appears, read: experiment wp103, direction of change down.
Setting [9] is: experiment wp107, direction of change down.
Where [10] appears, read: experiment wp071, direction of change down.

Experimental findings from patent US20240269139A1, “COMPOUNDS FOR TARGETED PROTEIN DEGRADATION OF KINASES” (DANA-FARBER CANCER INSTITUTE, INC., priority 2020, published 2024) are described below.

Molecules are shown by their SMILES. Where two headings read alike, the source gives them in different places.

As for `CC(C)(C)c1nc(-c2cccc(NS(=O)(=O)c3c(F)cccc3F)c2F)c(-c2ccnc(NCCOCCNC(=O)CCOCCOCCNc3cccc4c3CN(C3CCC(=O)NC3=O)C4=O)n2)s1` (stereo not drawn) [DD.03.107], the logFC reads like this: (ACAD10 (Q6JQN1-5), experiment wp147, 1 uM) −0.5536; (ACAD10 (Q6JQN1-5), experiment wp147, 2 uM) −0.5234; under setting [1], −1.061; (GK P32189-3, experiment wp147, 1 uM) −0.4979; (GK P32189-3, experiment wp147, 2 uM) −0.4324; under setting [2], −0.7592. Further, the “logFC PDK3” value (experiment wp147, 1 uM) is reported as −0.5119; the “logFC PDK3” value (experiment wp147, 2 uM) was −0.5406; the “logFC PDK3” value (experiment wp147, 4 uM) is −1.004. In addition, the “logFC PDK3 (Q15120-2)” value reads like this: (experiment wp147, 1 uM) −0.5119; (experiment wp147, 2 uM) −0.5406; (experiment wp147, 4 uM) −1.004.

For the compound `CC(C)S(=O)(=O)c1ccccc1Nc1nc(Nc2ccc(N3CCN(CCOCCNC(=O)CNc4cccc5c4C(=O)N(C4CCC(=O)NC4=O)C5=O)CC3)cc2)ncc1Cl` (stereo not drawn) [SK-3-91], the “targets with significantly different degrader efficacy in the different cell lines with no obvious difference in protein expression” value (MOLT-4, KELLY, HEK293T) is “SIK2, LIMK1, FAK”. Moreover, for the setting “kinases significantly downregulated vs DMSO (fold change cutoff −1.25, P-value<0.01), ≤8 h, 0.1-5 μM degrader, 7 cell lines”, the Kinase hits result is recorded as “AAK1, ABL1, ABL2, AKT2, AKT3, AURKA, AURKB, BCKDK, BLK, BMP2K, BMPR1A, BUB1, BUB1B, CDC7, CDK10, CDK12, CDK13, CDK14, CDK16, CDK17, CDK18, CDK2, CDK4, CDK5, CDK6, CDK7, CDK9, CO18A, CSK, CSNK1D, EPHB2, EPHB4, FER, FYN, GAK HIPK1, ITK, LATS1,”. Moreover, the “Total no. kinase hits” value (number of degraded kinases per library compound) worked out at 89.

`CC(C)(C)c1nc(-c2cccc(NS(=O)(=O)c3c(F)cccc3F)c2F)c(-c2ccnc(NCCOCCNC(=O)CCOCCOCCNc3cccc4c3C(=O)N(C3CCC(=O)NC3=O)C4=O)n2)s1` (stereo not drawn) [DD.03.106] had a logFC under setting [1] of −0.7404; a logFC under setting [2] of −0.4811; a logFC (LIMK2 (P53671-3), experiment wp047, direction down) of −0.962; a logFC (LIMK2 (P53671-3), experiment wp147, 1 uM, direction down) of −0.8736; a logFC (LIMK2 (P53671-3), experiment wp147, 2 uM, direction down) of −1.082; a logFC (LIMK2 (P53671-3), experiment wp147, 4 uM, direction down) of −0.9319. Where the note is “Accession Q00537-2, experiment wp137”, the “logFC of CDK17” value is −0.8682. Further, the “logFC MAP3K20 (Q9NYL2-2)” value runs as follows: (Experiment wp147, 2 uM) −0.7388; (Experiment wp147, 4 uM) −0.4901; (experiment wp147, 2 uM) −0.7388; (experiment wp147, 4 uM) −0.4901. Moreover, the “logFC of LIMK2” value (experiment wp047) is −0.962; the “logFC of LIMK2” value (experiment wp147, 1 uM) is −0.8736; the “logFC of LIMK2” value (experiment wp147, 2 uM) is reported as −1.082; the “logFC of LIMK2” value (experiment wp147, 4 uM) was −0.9319. The “logFC PDK3” value by setting is: (experiment wp137) −0.3571; (experiment wp147, 4 uM) −0.6564. For the same compound, the “logFC CDK16 (Q00536-2)” value is, setting by setting: (experiment wp137) −1.175; (experiment wp147, 1 uM) −0.5427; (experiment wp147, 2 uM) −0.5385; (experiment wp147, 4 uM) −0.4393. Further, the “logFC PDK3 (Q15120-2)” value (experiment wp137) is −0.3571. In addition, the “logFC of CDK17 (Q00537-2)” value (experiment wp137) was −0.8682.

As for `Cc1ccc(C(=O)Nc2ccc(CN3CCN(CCOCCOCCNC(=O)CNc4cccc5c4C(=O)N(C4CCC(=O)NC4=O)C5=O)CC3)c(C(F)(F)F)c2)cc1C#Cc1cnc2cccnn12` (stereo not drawn) [TL13.150], the “logFC of SRC” value (experiment wp081) is −0.5331. In addition, the “logFC MAPK14” value is, setting by setting: (MAPK14, accession Q16539-2, experiment wp081, direction of change down) −0.5025; (MAPK14 Q16539-2, experiment wp081) −0.5025. For the same compound, under setting [3], the logFC is recorded as −0.5331.

For `CN(C)C(=O)c1cc2cnc(Nc3ccc(N4CCN(CCCCNC(=O)COc5cccc6c5C(=O)N(C5CCC(=O)NC5=O)C6=O)CC4)cn3)nc2n1C1CCCC1` (stereo not drawn) [BSJ.04.132], the logFC (ACAD10 (Q6JQN1-5), experiment wp084) was −0.7484. Besides, the logFC (GK P32189-3, experiment wp084) was −0.383. Moreover, where the note is “experiment wp084”, the “logFC PDK3” value is −0.7397 and the “logFC PDK3 (Q15120-2)” value is −0.7397.

As for `NC(=O)c1c(F)cccc1Nc1nc(Nc2ccc(S(=O)(=O)NCCOCCOCCOCCOCCNc3cccc4c3C(=O)N(C3CCC(=O)NC3=O)C4=O)cc2)ncc1Br` (stereo not drawn) [TMX.02.138], under setting [4], the logFC is reported as −1.832 and the “logFC AURKB” value is listed as −1.832. Besides, under “Accession P49841-2, experiment wp146, direction down”, the “logFC GSK3B” value is −0.604. Under “CDK9 (P50750-2) protein abundance, degrader vs DMSO, down”, the logFC was −1.889. Further, under setting [5], the logFC is on record as −0.4648 and the “logFC CLK1” value was −0.4648. Moreover, under setting [6], the “logFC MAPK8 (P45983-4)” value is −0.9813 and the “logFC PRKAA1 (Q13131-2)” value is listed as −0.7125. Further, the “logFC GSK3B” value (GSK3B P49841-2, experiment wp146) was −0.604. The “logFC MAPK8” value (MAPK8 P45983-4, experiment wp146) was −0.9813. In addition, the “logFC RPS6KA1” value (RPS6KA1 (Q15418-2), experiment wp146) was −0.501. Besides, for the setting “experiment wp146”, the “logFC CDK9 (P50750-2)” value is reported as −1.889, the “logFC CDK16 (Q00536-2)” value was −1.434, the “logFC PRKAA1 (Q13131-2)” value is reported as −0.7125 and the “logFC RPS6KA1 (Q15418-2)” value was −0.501.

Regarding `O=C(COc1cccc2c1C(=O)N(C1CCC(=O)NC1=O)C2=O)NCCCCCCCC(=O)NC1(c2ccc(-c3nc4ccn5c(=O)[nH]nc5c4cc3-c3ccccc3)cc2)CCC1` (stereo not drawn) [INY.01.140.1], where the note is “experiment wp081”, the “logFC PDK3” value is listed as −0.3755 and the “logFC PDK3 (Q15120-2)” value was −0.3755.

On to `Cc1ccc(C(=O)Nc2ccc(CN3CCN(CCCOCCOCCOCCNC(=O)COc4cccc5c4C(=O)N(C4CCC(=O)NC4=O)C5=O)CC3)c(C(F)(F)F)c2)cc1C#Cc1cnc2cccnn12` (stereo not drawn) [SB1.G.187], for which the “logFC ABL1” value is listed as −0.5173 (experiment wp056), −0.754 (experiment wp103) and −0.5339 (experiment wp107). Further, the “logFC FYN” value is, setting by setting: (Accession P06241-2, experiment wp107) −0.5334; (FYN P06241-2, experiment wp107) −0.5334. Also, the “logFC of SRC” value (experiment wp056) is reported as −0.604, the “logFC of SRC” value (experiment wp103) is on record as −0.8282, the “logFC of SRC” value (experiment wp105) is on record as −0.5683 and the “logFC of SRC” value (experiment wp107) was −1.206. The “logFC MAP3K20 (Q9NYL2-2)” value is −0.6203 (Experiment wp103); −0.4387 (Experiment wp107); −0.7846 (Experiment wp114); −0.6203 (experiment wp103); −0.4387 (experiment wp107); −0.7846 (experiment wp114). Besides, the “logFC of LYN (P07948-2)” value reads like this: (Experiment wp114) −0.4408; (experiment wp105) −1.087. The compound further had a logFC (FER (P16591-3), experiment wp172, direction down) of −1.394; a logFC (GK P32189-3, experiment wp056) of −0.4719; a logFC (LYN (P07948-2), experiment wp105) of −1.087; a logFC (LYN (P07948-2), experiment wp114) of −0.4408. Besides, for the setting “FER P16591-3, experiment wp172”, the “logFC of FER” value was −1.394. In addition, the “logFC LCK” value reads like this: under setting [7], −1.003; under setting [8], −1.237; under setting [9], −1.237. For the same compound, the “logFC MAPK14” value by setting is: (MAPK14, accession Q16539-2, experiment wp056, direction of change down) −0.8019; (MAPK14, accession Q16539-2, experiment wp105, direction of change down) −0.9084; (MAPK14 Q16539-2, experiment wp056) −0.8019; (MAPK14 Q16539-2, experiment wp105) −0.9084. For the same compound, for the setting “experiment wp056”, the “logFC PDK3” value was −0.4827. The “logFC ABL1 (P00519-2)” value (experiment wp056) is on record as −0.5173, the “logFC ABL1 (P00519-2)” value (experiment wp103) is −0.754 and the “logFC ABL1 (P00519-2)” value (experiment wp107) is reported as −0.5339. In addition, where the note is “experiment wp056”, the “logFC PDK3 (Q15120-2)” value is given as −0.4827. The “logFC LCK (P06239-3)” value runs as follows: under setting [7], −1.003; under setting [8], −1.237; under setting [9], −1.237.

Consider `Nc1ncnc2c1c(-c1ccc(Oc3ccccc3)cc1)nn2[C@H]1CC[C@H](N2CCN(CCOCCNC(=O)CNc3cccc4c3C(=O)N(C3CCC(=O)NC3=O)C4=O)CC2)CC1` (stereo partly drawn) [SB1.G.181], for which, where the note is “experiment wp071”, the “logFC ABL1” value is recorded as −1.735, the “logFC of SRC” value is listed as −2.478 and the “logFC ABL1 (P00519-2)” value is −1.735. The “logFC FYN” value (Accession P06241-2, experiment wp071) is given as −2.276. The “logFC FYN” value (FYN P06241-2, experiment wp071) is −2.276. Further, under setting [10], the “logFC LCK” value is −1.774 and the “logFC LCK (P06239-3)” value is listed as −1.774. The same compound yielded a logFC under setting [3] of −2.478.
